pEC50: −log10 of the molar value. Where two headings read alike, the source gives them in different places.
Experiments:
HCV replicon = assay: Anti-HCV replicon assay (EC50, luciferase readout); format: cell-based, hepatitis C virus; conditions: human hepatoma Huh-7 cell line harbouring a HCV replicon, 3 days incubation, luciferase signal
Method: (§1) The anti HCV activity of specifically substituted pteridine derivatives was tested in a human hepatoma Huh-7 cell line harbouring a HCV replicon. The assay comprised the following steps:
(§2) Step 1: compound preparation and serial dilution involved the following alternatives, depending upon the water solubility of pteridine derivative being tested:
(§3) • 1. with respect to water soluble pteridine derivatives, 500 μL of solution in cell media (DMEM, 10% FBS, P/S, L-Glutamine) was prepared with a concentration that is twice the concentration of the starting final serial dilution concentration. 150 μL of the solution was added to the pre-specified wells in column 1 of a 96-well cell culture plate (PerkinElmer, white plate, cat. #6005181, for EC50 assay; black plate, cat. #6005182 for CC50 assay). The rest of the plate, i.e. columns 2-12, was filled with 100 μL of cell media. The plate was then placed on a Precision 2000 Workstation in order to start serial dilution. Pteridine compounds were diluted three times each step from column 1 to column 10. Column 11 was used as a blank control (no pteridine compound added). • 2. With respect to poorly water soluble pteridine derivatives, DMSO was used as a solvent, and serial dilution was performed in 50% DMSO in water, in a 384-well plate. A solution containing the relevant compound at 100-fold the concentration of the starting final serial dilution concentration was prepared in 50% DMSO in water and added to the pre-specified wells in column 1 of a polypropylene 384-well plate. This plate was then placed on a Precision 2000 Workstation in order to start serial dilution. After serial dilution, 2 μL of the solution was transferred from the 384-well plate to a 96-well cell culture plate containing 100 μL of cell media on a Biomek FX Workstation. The DMSO concentration in the final assay condition was 0.5% after cells have been added to the plate and the total volume in each well was brought to 200 μL. Step 2: to each well of the serial dilution plate prepared in step 1, 100 μL of cell media containing 6000 suspended Huh-7 HCV replicon cells was added with a Multidrop workstation. Plates were incubated for 3 days at 37° C. with 5% CO2. Step 3: detection: • 1) with respect to the EC50 assay, the media in a 96-well cell culture plate was aspirated with a Biotek EL405 plate-washer. A volume of 200 μL of a solution containing a 1:1 mixture of a cell-lysis buffer (commercially available from Promega, Luciferase Cell Culture Lysis 5X Reagent, cat. #E1531) and a luciferase substrate solution (commercially available from Promega, Luciferase Assay, cat. #E4550) was added to each well of the plate with Multidrop. The plate was incubated for 30 minutes at room temperature before the luminescence signal was measured with a TopCount plate-reader. • 2) with respect to the CC50 assay, 100 μL of a pre-mixed CellTiter-Glo (commercially available from Promega, cat. #G7572) solution was added directly to the cell culture in each well of the plate and the luminescence signal was measured with a TopCount plate-reader after 10 minutes of incubation at room temperature.
(§4) Results are expressed by the following data: • the 50% effective concentration (EC50), i.e. the concentration that protects 50% of the cell monolayer from virus-induced cythopathic effect. • the 50% cytostatic concentration (CC50), i.e. the concentration that results in 50% inhibition of cell growth.

[1] = CC50 assay (CellTiter-Glo) in Huh-7 HCV replicon cells; format: cell-based, human; conditions: human, 3 days incubation, 50% cytostatic concentration
Method: as §1, §2, §3, §4

[2] = Hepatitis C virus, 72 h, read-out: EC50

| SMILES | pEC50 (HCV replicon; [2]) | CC50 at 3 days [1] [µM] | pEC50 (HCV replicon; Hepatitis C virus, Huh-7, 72 h) | pEC50 (HCV replicon) | pEC50 (HCV replicon; Hepatitis C virus, Huh-7, in Homo sapiens, 72 h) |
| --- | --- | --- | --- | --- | --- |
| CCOc1nc(N)nc2ncc(-c3ccc(OC)c(F)c3)nc12 [Example 3, 4-ethoxy-6-(3-fluoro-4-methoxyphenyl)pteridin-2-ylamine] | 5.00 to 6.00 | > 20 | – | – | – |
| CCOc1nc(N)nc2ncc(-c3ccc(Cl)cc3)nc12 [Example 27, 6-(4-chlorophenyl)-4-ethoxypteridin-2-ylamine] | – | < 10 | 6.00 to 6.52 | – | – |
| CCOc1nc(N)nc2ncc(-c3ccc(S(C)(=O)=O)cc3)nc12 [Example 30, 4-ethoxy-6-(4-(methylsulfonyl)phenyl)pteridin-2-ylamine] | 5.00 to 6.00 | > 20 | – | – | – |
| CCOc1nc(N)nc2ncc(-c3ccncc3)nc12 [Example 31, 4-ethoxy-6-(pyridin-4-yl)pteridin-2-ylamine] | 6.00 to 6.52 | < 10 | – | – | – |
| CCOc1nc(N)nc2ncc(-c3ccc(C)cc3)nc12 [Example 54, 4-ethoxy-6-p-tolylpteridin-2-ylamine] | 5.00 to 6.00 | > 20 | – | – | – |
| CCOc1nc(N)nc2ncc(-c3ccc(O)cc3)nc12 [Example 57, 4-(2-amino-4-ethoxypteridin-6-yl)phenol] | – | > 20 | 5.00 to 6.00 | – | – |
| CCOc1nc(N)nc2ncc(-c3ccc(N)cc3)nc12 [Example 69, 6-(4-aminophenyl)-4-ethoxypteridin-2-ylamine] | – | > 20 | 5.00 to 6.00 | – | – |
| Nc1nc(N2CCOCC2)c2nc(-c3ccccc3Cl)cnc2n1 [Example 78, 6-(2-chlorophenyl)-4-morpholinopteridin-2-ylamine] | – | < 10 | 6.00 to 6.52 | – | – |
| Nc1nc(N2CCOCC2)c2nc(-c3ccccc3C(F)(F)F)cnc2n1 [Example 79, 4-morpholino-6-(2-(trifluoromethyl)phenyl)pteridin-2-ylamine] | 6.00 to 6.52 | < 10 | – | – | – |
| COc1ccccc1-c1cnc2nc(N)nc(N3CCOCC3)c2n1 [Example 80, 6-(2-methoxyphenyl)-4-morpholinopteridin-2-ylamine] | 6.00 to 6.52 | > 20 | – | – | – |
| Nc1nc(N2CCOCC2)c2nc(-c3cccc(Cl)c3)cnc2n1 [Example 82, 6-(3-chlorophenyl)-4-morpholinopteridin-2-ylamine] | – | > 20 | 6.00 to 6.52 | – | – |
| Nc1nc(N2CCOCC2)c2nc(-c3cccc(OC(F)(F)F)c3)cnc2n1 [Example 84, 4-morpholino-6-(3-(trifluoromethoxy)phenyl)-pteridin-2-ylamine] | > 6.52 | < 10 | – | – | – |
| N#Cc1cccc(-c2cnc3nc(N)nc(N4CCOCC4)c3n2)c1 [Example 85, 3-(2-amino-4-morpholinopteridin-6-yl)benzonitrile] | 5.00 to 6.00 | > 20 | – | – | – |
| Nc1nc(N2CCOCC2)c2nc(-c3ccc(CN4CCOCC4)cc3)cnc2n1 [Example 89, 4-morpholino-6-(4-(morpholino-methyl)phenyl)pteridin-2-ylamine] | 5.00 to 6.00 | > 20 | – | – | – |
| Nc1nc(N2CCOCC2)c2nc(-c3cccc(F)c3F)cnc2n1 [Example 90, 6-(2,3-difluorophenyl)-4-morpholinopteridin-2-ylamine] | – | > 20 | – | 6.00 to 6.52 | – |
| Nc1nc(N2CCOCC2)c2nc(-c3cccc(Cl)c3Cl)cnc2n1 [Example 91, 6-(2,3-dichlorophenyl)-4-morpholinopteridin-2-amine] | – | > 20 | 6.00 to 6.52 | – | – |
| Nc1nc(N2CCOCC2)c2nc(-c3ccc(F)cc3Cl)cnc2n1 [Example 92, 6-(2-chloro-4-fluorophenyl)-4-morpholinopteridin-2-ylamine] | – | 10 to 20 | 6.00 to 6.52 | – | – |

| SMILES | pEC50 (HCV replicon; [2]) | CC50 at 3 days [1] [µM] | pEC50 (HCV replicon; Hepatitis C virus, Huh-7, 72 h) | pEC50 (HCV replicon) | pEC50 (HCV replicon; Hepatitis C virus, Huh-7, in Homo sapiens, 72 h) |
| --- | --- | --- | --- | --- | --- |
| Nc1nc(N2CCOCC2)c2nc(-c3ccc(C(F)(F)F)cc3C(F)(F)F)cnc2n1 [Example 93, 6-(2,4-bis(trifluoromethyl)phenyl)-4-morpholinopteridin-2-ylamine] | 5.00 to 6.00 | 10 to 20 | – | – | – |
| Nc1nc(N2CCOCC2)c2nc(-c3c(Cl)cccc3Cl)cnc2n1 [Example 95, 6-(2,6-dichlorophenyl)-4-morpholinopteridin-2-ylamine] | – | 10 to 20 | 5.00 to 6.00 | – | – |
| Nc1nc(N2CCOCC2)c2nc(-c3cccnc3)cnc2n1 [Example 108, 4-morpholino-6-(pyridin-3-yl)pteridin-2-ylamine] | 6.00 to 6.52 | 10 to 20 | – | – | – |
| Nc1nc(N2CCOCC2)c2nc(-c3cccnc3F)cnc2n1 [Example 109, 6-(2-fluoropyridin-3-yl)-4-morpholino-pteridin-2-ylamine] | – | 10 to 20 | 5.00 to 6.00 | – | – |
| Nc1nc(N2CCOCC2)c2nc(-c3ccsc3)cnc2n1 [Example 110, 4-morpholino-6-(thiophen-3-yl)pteridin-2-ylamine] | 5.00 to 6.00 | > 20 | – | – | – |
| Nc1nc(N2CCOCC2)c2nc(-c3ccoc3)cnc2n1 [Example 111, 6-(furan-3-yl)4-morpholinopteridin-2-ylamine] | – | > 20 | 5.00 to 6.00 | – | – |
| Nc1nc(N2CCOCC2)c2nc(-c3ccn[nH]3)cnc2n1 [Example 112, 4-morpholino-6-(1H-pyrazol-5-yl)pteridin-2-ylamine] | 5.00 to 6.00 | > 20 | – | – | – |
| CNC(=O)c1ccc(-c2cnc3nc(N)nc(N4CCOCC4)c3n2)cc1 [Example 114, 4-(2-amino-4-morpholinopteridin-6-yl)-N-methylbenzamide] | 5.00 to 6.00 | > 20 | – | – | – |
| Cc1cc(F)ccc1-c1cnc2nc(N)nc(N3CCOCC3)c2n1 [Example 120, 6-(4-fluoro-2-methylphenyl)-4-morpholinopteridin-2-ylamine] | 5.00 to 6.00 | 10 to 20 | – | – | – |
| Nc1nc(N2CCOCC2)c2nc(-c3ccc(C(F)(F)F)cc3Cl)cnc2n1 [Example 121, 6-(2-chloro-4-(trifluoromethyl)phenyl)-4-morpholinopteridin-2-ylamine] | 5.00 to 6.00 | 10 to 20 | – | – | – |
| Nc1nc(N2CCOCC2)c2nc(-c3cc4ccccc4s3)cnc2n1 [Example 123, 6-(benzo[b]thiophen-2-yl)-4-morpholinopteridin-2-ylamine] | – | < 10 | 6.00 to 6.52 | – | – |
| CCOc1cccc(-c2cnc3nc(N)nc(N4CCOCC4)c3n2)c1 [Example 126, 6-(3-ethoxyphenyl)-4-morpholinopteridin-2-ylamine] | 5.00 to 6.00 | 10 to 20 | – | – | – |
| Nc1nc(N2CCOCC2)c2nc(-c3ccc(Cl)s3)cnc2n1 [Example 127] | – | < 10 | – | – | 6.00 to 6.52 |
| COC(=O)Nc1ccc(-c2cnc3nc(N)nc(N4CCOCC4)c3n2)cc1 [Example 129, methyl 4-(2-amino-4-morpholinopteridin-6-yl)phenylcarbamate] | > 6.52 | < 10 | – | – | – |
| COc1ccc(-c2cnc3nc(N)nc(N4CCOCC4)c3n2)cn1 [Example 130, 6-(6-methoxypyridin-3-yl)-4-morpholinopteridin-2-ylamine] | 5.00 to 6.00 | > 20 | – | – | – |
| Nc1nc(N2CCOCC2)c2nc(-c3cc4ccccc4o3)cnc2n1 [Example 133, 6-(benzofuran-2-yl)-4-morpholinopteridin-2-ylamine] | 6.00 to 6.52 | > 20 | – | – | – |
| Nc1nc(N2CCOCC2)c2nc(-c3ccc4c(c3)CC(=O)N4)cnc2n1 [Example 136, 5-(2-amino-4-morpholinopteridin-6-yl)indolin-2-one] | 5.00 to 6.00 | 10 to 20 | – | – | – |
